Test results from ChEMBL document CHEMBL4004853, “Design, synthesis and biological evaluation of thienopyrimidine hydroxamic acid based derivatives as structurally novel histone deacetylase (HDAC) inhibitors” (Eur J Med Chem, 2017).

Legend:
Histone deacetylase 1 [1] = target: T1, Histone deacetylase 1 (Homo sapiens, UniProt Q13547); assay: Inhibition of full length recombinant human GST fused His6-tagged HDAC1 expressed in baculovirus infected High5 cells using Ac-Lys-Tyr-Lys(epsilon-acetyl)-AMC as substrate measured after 24 hrs
T1 sequence (Q13547 whole entry, the tested form may be a part): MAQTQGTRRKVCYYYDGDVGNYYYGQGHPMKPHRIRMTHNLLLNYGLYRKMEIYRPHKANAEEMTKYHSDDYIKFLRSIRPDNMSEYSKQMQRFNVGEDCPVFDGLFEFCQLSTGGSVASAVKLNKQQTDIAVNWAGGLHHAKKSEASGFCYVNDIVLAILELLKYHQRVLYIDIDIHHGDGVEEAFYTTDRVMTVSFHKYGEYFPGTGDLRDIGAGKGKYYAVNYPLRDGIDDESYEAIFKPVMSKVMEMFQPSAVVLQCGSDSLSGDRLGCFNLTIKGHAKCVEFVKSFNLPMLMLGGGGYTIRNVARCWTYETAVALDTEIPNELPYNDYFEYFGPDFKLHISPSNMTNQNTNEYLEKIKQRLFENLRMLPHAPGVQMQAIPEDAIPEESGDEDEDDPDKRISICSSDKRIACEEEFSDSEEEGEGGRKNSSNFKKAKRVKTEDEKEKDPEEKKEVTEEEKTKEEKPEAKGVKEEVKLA

Histone deacetylase 3 = Histone deacetylase 3 (Homo sapiens, UniProt O15379); assay: Inhibition of full length recombinant human GST fused His6-tagged HDAC3 expressed in baculovirus infected High5 cells using Ac-Lys-Tyr-Lys(epsilon-acetyl)-AMC as substrate measured after 24 hrs
Chain of Histone deacetylase 3 (O15379 whole entry, the tested form may be a part): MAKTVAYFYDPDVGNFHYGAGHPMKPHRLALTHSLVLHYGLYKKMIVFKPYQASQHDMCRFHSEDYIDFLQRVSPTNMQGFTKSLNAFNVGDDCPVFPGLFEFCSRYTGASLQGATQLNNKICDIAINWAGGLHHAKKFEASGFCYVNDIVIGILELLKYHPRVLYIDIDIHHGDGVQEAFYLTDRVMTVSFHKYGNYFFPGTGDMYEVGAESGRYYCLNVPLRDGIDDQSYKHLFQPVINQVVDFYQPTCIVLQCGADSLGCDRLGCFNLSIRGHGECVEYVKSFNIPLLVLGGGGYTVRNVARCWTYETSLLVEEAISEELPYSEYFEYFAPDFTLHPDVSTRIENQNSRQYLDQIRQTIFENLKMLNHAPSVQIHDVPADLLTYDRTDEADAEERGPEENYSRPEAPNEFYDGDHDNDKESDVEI

[2] = target: T2, Protein deacetylase HDAC6 (Homo sapiens, UniProt Q9UBN7); assay: Inhibition of full length recombinant human GST fused His6-tagged HDAC6 expressed in baculovirus infected High5 cells using Boc-Lys(epsilon-acetyl)-AMC as substrate measured after 3 hrs
T2 sequence (Q9UBN7 whole entry): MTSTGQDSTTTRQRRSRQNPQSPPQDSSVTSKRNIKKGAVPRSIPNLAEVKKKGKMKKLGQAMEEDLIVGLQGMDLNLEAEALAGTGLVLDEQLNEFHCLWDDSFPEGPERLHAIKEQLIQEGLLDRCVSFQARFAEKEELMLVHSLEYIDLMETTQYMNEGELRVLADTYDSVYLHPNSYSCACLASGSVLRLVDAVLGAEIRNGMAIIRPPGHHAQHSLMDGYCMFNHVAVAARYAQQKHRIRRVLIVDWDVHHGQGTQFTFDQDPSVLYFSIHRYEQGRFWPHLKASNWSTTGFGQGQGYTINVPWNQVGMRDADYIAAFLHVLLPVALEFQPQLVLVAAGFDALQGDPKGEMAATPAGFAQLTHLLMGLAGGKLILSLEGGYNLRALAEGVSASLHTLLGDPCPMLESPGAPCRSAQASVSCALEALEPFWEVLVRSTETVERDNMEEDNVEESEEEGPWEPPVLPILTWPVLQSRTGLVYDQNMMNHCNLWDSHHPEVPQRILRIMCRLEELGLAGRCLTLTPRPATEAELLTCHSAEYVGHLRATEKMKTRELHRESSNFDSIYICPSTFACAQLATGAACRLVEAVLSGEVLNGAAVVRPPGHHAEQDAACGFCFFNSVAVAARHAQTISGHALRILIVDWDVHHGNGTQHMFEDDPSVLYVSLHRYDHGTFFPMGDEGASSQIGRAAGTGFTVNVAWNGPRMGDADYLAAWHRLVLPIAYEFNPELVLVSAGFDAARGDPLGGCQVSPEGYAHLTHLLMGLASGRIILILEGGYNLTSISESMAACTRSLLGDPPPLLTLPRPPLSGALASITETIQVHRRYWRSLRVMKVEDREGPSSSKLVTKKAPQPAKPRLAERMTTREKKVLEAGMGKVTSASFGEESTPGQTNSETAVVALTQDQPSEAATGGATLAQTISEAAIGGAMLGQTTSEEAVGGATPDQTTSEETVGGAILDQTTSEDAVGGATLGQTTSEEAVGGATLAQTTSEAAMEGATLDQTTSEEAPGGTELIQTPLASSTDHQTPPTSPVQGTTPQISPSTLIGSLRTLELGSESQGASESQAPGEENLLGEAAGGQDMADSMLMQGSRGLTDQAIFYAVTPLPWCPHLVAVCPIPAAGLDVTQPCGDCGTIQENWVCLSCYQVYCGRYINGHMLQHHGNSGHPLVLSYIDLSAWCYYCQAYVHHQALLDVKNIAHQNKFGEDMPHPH

RPMI-8226 = assay: Antiproliferative activity against human RPMI8226 cells after 72 hrs by CellTiter 96 AQueous Non-Radioactive assay; assay type: functional, cell-based; details: RPMI-8226, 72 h
HCT-116 = assay: Antiproliferative activity against human HCT116 cells after 72 hrs by CellTiter 96 AQueous Non-Radioactive assay; assay type: functional, cell-based; details: HCT-116, 72 h
Histone deacetylase 1 [3] = target: T1, Histone deacetylase 1; assay: Inhibition of HDAC1 in human RPMI8226 cells assessed as increase in histone H3 acetylation after 24 hrs by western blot analysis; assay type: cell-based
[4] = target: T3, Protein deacetylase HDAC6 (Homo sapiens) (UniProt Q9UBN7); assay: Inhibition of HDAC6 in human RPMI8226 cells assessed as increase in tubulin acetylation after 24 hrs by western blot analysis; assay type: cell-based
T3 sequence (whole entry): T2 sequence (Q9UBN7 whole entry)

Row | SMILES | IC50 (Histone deacetylase 1 [1]) [µM] | IC50 (Histone deacetylase 3) [µM] | IC50 [2] [µM] | IC50 (RPMI-8226) [µM] | IC50 (HCT-116) [µM] | inhibition (Histone deacetylase 1 [3]) | inhibition [4]
1 | O=C(CCCCCCC(=O)Nc1cc2ncnc(Nc3cccc(Br)c3)c2s1)NO | 0.0545 | 0.0338 | 0.0169 | 1.75 | 1.74 |  | 
2 | N#Cc1cccc(Nc2ncnc3cc(NC(=O)CCCCCCC(=O)NO)sc23)c1 | 0.045 | 0.0198 | 0.0201 | 1.58 | 2.09 | Dose-dependent effect | Dose-dependent effect
3 | COc1cccc(Nc2ncnc3cc(NC(=O)CCCCCCC(=O)NO)sc23)c1 | 0.0622 | 0.0214 | 0.0209 | 1.26 | 1.33 | Dose-dependent effect | Dose-dependent effect
4 | CCc1cccc(Nc2ncnc3cc(NC(=O)CCCCCCC(=O)NO)sc23)c1 | 0.116 | 0.147 | 0.0585 | 1.57 | 1.44 |  | 
5 | O=C(CCCCCCC(=O)Nc1cc2ncnc(Nc3cccc(F)c3)c2s1)NO | 0.0737 | 0.0645 | 0.0425 | 1.63 | 1.78 |  | 
6 | O=C(CCCCCCC(=O)Nc1cc2ncnc(Nc3cccc(Cl)c3)c2s1)NO | 0.0538 | 0.0455 | 0.0338 | 1.52 | 1.82 |  | 
7 | COc1ccc(Nc2ncnc3cc(NC(=O)CCCCCCC(=O)NO)sc23)c(C)c1 | 0.117 | 0.144 | 0.111 | 1.98 | 2.48 |  | 
8 | Cc1ccccc1Nc1ncnc2cc(NC(=O)CCCCCC(=O)NO)sc12 | 0.138 | 0.0988 | 0.0876 | 1.75 | 2.56 |  | 
